The values that follow come from patent US20210255184A1, “Biosensor Device and Methods” (The New Zealand Institute for Plant and Food Research …, priority 2018, published 2021).

The assay concerns the target T1, Or22a (Drosophila melanogaster, UniProt P81909).
T1 construct: his-tag; made in house; host or cells: baculovirus-infected Sf9 cells
T1 sequence (P81909 1-397): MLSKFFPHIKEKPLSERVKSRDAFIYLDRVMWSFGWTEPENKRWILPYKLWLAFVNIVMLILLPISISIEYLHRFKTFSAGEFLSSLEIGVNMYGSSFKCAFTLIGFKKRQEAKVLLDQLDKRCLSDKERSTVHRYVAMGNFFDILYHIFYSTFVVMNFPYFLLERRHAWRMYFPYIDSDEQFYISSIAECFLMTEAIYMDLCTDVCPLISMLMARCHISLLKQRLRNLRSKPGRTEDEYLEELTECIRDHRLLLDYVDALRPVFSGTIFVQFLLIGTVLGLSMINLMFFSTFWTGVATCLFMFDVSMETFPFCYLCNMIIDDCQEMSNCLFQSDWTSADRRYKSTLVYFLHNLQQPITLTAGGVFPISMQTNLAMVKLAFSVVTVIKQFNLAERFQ
Briefly: EIS sensor, Or22a liposomes on gold electrode. It counts as biochemical. How it is done: Prior to their use, liposomes were defrosted on ice and then destabilized by incubating with 0.2% CHAPS for 15 min at room temperature. Then 200 μg of purified odorant receptor^28 was added to 1 mg of liposomes and rotated at 10 rpm for 1 h at room temperature. Excess detergent was removed by four additions of 25 mg of Bio-Beads SM-2 (Bio-Rad, USA) and incubation at 4° C. for 30 min, 2 h, overnight and a further 2 h respectively. The Bio-Beads were removed after each incubation period. The OrX or OrX/Orco integrated liposomes were pelleted by centrifugation at 100,000 g for 1 h, and were resuspended in 500 μL of rehydration buffer. Integration of OrXs and Orco into liposomes was assessed by density gradient ultracentrifugation (DGU) using Accudenz (Accurate Chemical & Scientific Corporation, USA). The integrated liposomes were brought to 40% Accudenz by the addition of an equal volume of 80% Accudenz solution, placed at the bottom of an ultra-centrifugation tube, and overlaid with 30% Accudenz solution, and DGU buffer (25 mM HEPES pH 7.5, 100 mM NaCl, 10% glycerol). The sample was then centrifuged at 100,000 g for 4 h at 4° C. Liposomes will float to the top of the gradient after Accudenz DGU due to their low density.
2 mM MHA was prepared by dissolving 1.36 μl of MHA in 5 ml ethanol (AR grade). The cleaned electrodes were immersed into MHA solution and incubated overnight. The next day, all the electrodes were washed with ethanol and deionised water thoroughly in order to remove the unreacted acid. A 2:1 mol:mol ratio of EDC:NHS (100 mM EDC, 50 mM NHS) was prepared in 2 ml PBS (pH=6.5) solution. Then, the electrodes were covered in 100 μl of this solution at 28° C. for an hour to activate the carboxylic (COOH) groups of the MHA.
PBS solution was prepared by immersing one tablet of PBS in 200 ml of milli-Q water (according to manufacturers instructions) and filtered using 0.2-μm syringe filter. The pH of the prepared buffer solution was measured with a pH meter. OrX liposomes or OrX/Orco liposomes were diluted 100 fold in PBS buffer solution (pH=7.4) and the COOH-activated electrodes were incubated in that buffer solution at room temperature for one hour. Then, the electrodes were washed extensively with PBS buffer solution to wash out any unbound liposomes.
PBS (pH=7.4) was used as an electrolyte to conduct electrochemical measurements. PBS buffer was degassed for about 30 minutes prior to electrochemical measurements. Odorant solutions of concentration ranging from 1 aM to 1 μM were prepared by sequential dilution in PBS solution containing 1% DMSO. OR immobilized electrodes were incubated in relevant odorant solution for ˜30 minutes each and washed gently with PBS before EIS measurements.
EIS measurements were done in a 3 electrode cell containing Ag/AgCl (3 M NaCl, 0.209 V vs. SHE) reference electrode, coiled platinum wire as a counter electrode and the gold disk as a working electrode at a fixed voltage of −0.7 using PalmSens potentiostat. Degassed PBS was used as an electrolyte.
EIS measurements were performed on gold electrodes functionalised with OrX liposomes (either Or10a or Or22a), OrX/Orco liposomes, or empty liposomes prior to and after target ligand or control ligand incubation with increasing concentrations (1 aM to 100 μM). Dose response curves were obtained by defining sensor response as −(ΔRp/R^op) versus log[C(Ligand)]. FIG. 4a presents the EIS response in terms of Nyquist plot for the Or10a liposome functionalized sensors when exposed to a solution containing one of the known target ligands of Or10a, methyl salicylate, at various concentrations. […] The dose response curve (FIG. 4b) was obtained by plotting the change in polarization resistance −(ΔRp/R^op) versus log[conc(Ligand)], as the sensor response. Here, Rp is the polarization resistance after Or10a liposome-target interaction and R^op is the polarization resistance before Or10a liposome-target interaction.

A word on the EC50: it is the concentration that produces a half-maximal response.

In the case of `CCCCCC(=O)OC` [methyl hexanoate], the “limit of detection (LOD)” value (EIS dose response, ligand 1 aM to 100 μM) is recorded as 1 fM. Moreover, the concentration giving a half-maximal response (EC50) runs as follows: (Table 1, approximate) around 1 pM; (Table 3, fitted dose response) 1.1 pM. The Sensitivity limit (Table 1, * estimated visually from dose response graph) is reported as ~10^−15 M*. Besides, the “Detection Range” value (Table 3) was 10^−15 to 10^−5 M.

Turning to `COC(=O)c1ccccc1O` [methyl salicylate], the “sensor response to control ligand” value (EIS dose response) is given as “negligible response”.
